The record followed here is US9624206B2, “Antibacterial 1H-indazole and 1H-indole derivatives” (priority 2013, dated 2017).

Holding throughout (experiment): Bacterial growth minimal inhibitory concentration (microdilution, CLSI M7-A7)
Holding throughout (type): cell-based
For orientation: In broth dilution the organism is exposed to a series of concentrations in liquid medium.

The test system of test [1] is Acinetobacter baumannii T6474. The note with it: Acinetobacter baumannii, T6474; multiply-resistant strain (in particular quinolone-resistant); cation-adjusted Mueller-Hinton Broth. Here is the method:
(§1) Minimal Inhibitory Concentrations (MICs; mg/L) were determined in cation-adjusted Mueller-Hinton Broth by a microdilution method following the description given in “Methods for Dilution Antimicrobial Susceptibility Tests for Bacteria that Grow Aerobically”, Approved standard, 7th ed., Clinical and Laboratory Standards Institute (CLSI) Document M7-A7, Wayne, Pa., USA (2006).
(§2) All Example compounds were tested against several Gram-positive and Gram-negative bacteria. […] K. pneumoniae A-651 and Acinetobacter baumannii T6474 are multiply-resistant strains (in particular quinolone-resistant), while E. coli ATCC25922 and P. aeruginosa ATCC27853 are quinolone-sensitive strains.

The subject of test [2] is E. coli ATCC25922. The note with it: Escherichia coli, ATCC25922; quinolone-sensitive strain; cation-adjusted Mueller-Hinton Broth. Here is the method: as §1, §2
Test [3] has as its system K. pneumoniae A-651. The following applies: Klebsiella pneumoniae, A651; multiply-resistant strain (in particular quinolone-resistant); cation-adjusted Mueller-Hinton Broth. Here is the method:
as §1, §2

Test [4] deals with P. aeruginosa ATCC27853. The note with it: Pseudomonas aeruginosa, ATCC27853; quinolone-sensitive strain; cation-adjusted Mueller-Hinton Broth. Here is the method:
as §1, §2

Values after ≈ are worked out from the molar mass of the structure shown.

Usually MIC stands for the lowest concentration found to suppress growth. A low value points to inhibition by little substance. For the molecule `CC#CCOc1ccc2c(ccn2CCC(C)(C(=O)NO)S(C)(=O)=O)c1` (racemic) [RE1, (RS)-4-(5-(but-2-yn-1-yloxy)-1H-indol-1-yl)-N-hydroxy-2-methyl-2-(methylsulfonyl)butanamide], the MIC in test [1] worked out at 16 µg/mL (≈ 42.3 µM); in test [2], 8 µg/mL (≈ 21.1 µM); in test [3] it was 16 µg/mL (≈ 42.3 µM); in test [4] it was 16 µg/mL (≈ 42.3 µM).

With `COc1cccc(-c2ccc3c(cnn3CCC(C)(C(=O)NO)S(C)(=O)=O)c2)c1F` (racemic) [RE2, (RS)-4-(5-(2-fluoro-3-methoxyphenyl)-1H-indazol-1-yl)-N-hydroxy-2-methyl-2-(methylsulfonyl)butanamide], the minimal inhibitory concentration (MIC) in test [1] turned out to be 32 µg/mL (≈ 73.5 µM); in test [2], 8 µg/mL (≈ 18.4 µM); in test [3], 16 µg/mL (≈ 36.7 µM); in test [4], 16 µg/mL (≈ 36.7 µM).

Turning to `CC(CCn1ncc2cc(/C=C/c3ccccc3)ccc21)(C(=O)NO)S(C)(=O)=O` (racemic) [RE3, (RS)-(E)-N-hydroxy-2-methyl-2-(methylsulfonyl)-4-(5-styryl-1H-indazol-1-yl)butanamide], the minimal inhibitory concentration (MIC) in test [1] was found to be 0.25 µg/mL (≈ 0.605 µM); in test [2] it was 0.25 µg/mL (≈ 0.605 µM); in test [3], 1 µg/mL (≈ 2.42 µM); in test [4], 16 µg/mL (≈ 38.7 µM).

As for `CC(CCn1ncc2cc(CCc3ccccc3)ccc21)(C(=O)NO)S(C)(=O)=O` (racemic) [RE4, (RS)—N-hydroxy-2-methyl-2-(methylsulfonyl)-4-(5-phenethyl-1H-indazol-1-yl)butanamide], the MIC in test [1] stood at 8 µg/mL (≈ 19.3 µM); in test [2], 2 µg/mL (≈ 4.81 µM); in test [3] it was 0.5 µg/mL (≈ 1.2 µM); in test [4], 8 µg/mL (≈ 19.3 µM).

Consider `CC(CCn1ncc2cc(C#Cc3ccc(CN4CCOCC4)cc3)ccc21)(C(=O)NO)S(C)(=O)=O.Cc1ccc(S(=O)(=O)O)cc1` (racemic) [RE5, (RS)—N-hydroxy-2-methyl-2-(methylsulfonyl)-4-(5-((4-(morpholinomethyl)phenyl)ethynyl)-1H-indazol-1-yl)butanamide 4-toluenesulfonic acid salt], for which the MIC in test [1] stood at 32 µg/mL; in test [2], 0.5 µg/mL; in test [3], 0.5 µg/mL; in test [4], 16 µg/mL.

As to `CC(CCn1ncc2cc(C#Cc3ccc(N)cc3)ccc21)(C(=O)NO)S(C)(=O)=O` (racemic) [RE6, (RS)-4-(5-((4-aminophenyl)ethynyl)-1H-indazol-1-yl)-N-hydroxy-2-methyl-2-(methylsulfonyl)butanamide], the MIC was found to be 1 µg/mL (≈ 2.34 µM) in test [1], 0.25 µg/mL (≈ 0.586 µM) in test [2], 0.5 µg/mL (≈ 1.17 µM) in test [3] and 8 µg/mL (≈ 18.8 µM) in test [4].

As to `CC(CCn1ncc2cc(-c3ccc(OC(F)(F)F)cc3)ccc21)(C(=O)NO)S(C)(=O)=O` (racemic) [RE7, (RS)—N-hydroxy-2-methyl-2-(methylsulfonyl)-4-(5-(4-(trifluoromethoxy)phenyl)-1H-indazol-1-yl)butanamide], the minimum inhibitory concentration (MIC) in test [1] is 8 µg/mL (≈ 17 µM); in test [2], 4 µg/mL (≈ 8.48 µM); in test [3], 1 µg/mL (≈ 2.12 µM); in test [4] it was 8 µg/mL (≈ 17 µM).

Consider `CC(CCn1ccc2cc(-c3ccc(-n4nccn4)cc3)ccc21)(C(=O)NO)S(C)(=O)=O.O=CO` (racemic) [RE8, (RS)-4-(5-(4-(2H-1,2,3-triazol-2-yl)phenyl)-1H-indol-1-yl)-N-hydroxy-2-methyl-2-(methylsulfonyl)butanamide formate], for which the MIC was 0.5 µg/mL in test [1], 0.25 µg/mL in test [2], no more than 0.063 µg/mL in test [3] and 8 µg/mL in test [4].

For `CC(CCn1ccc2cc(-c3ccc(OC(F)(F)F)cc3)ccc21)(C(=O)NO)S(C)(=O)=O` (racemic) [RE9, (RS)—N-hydroxy-2-methyl-2-(methylsulfonyl)-4-(5-(4-(trifluoromethoxy)phenyl)-1H-indol-1-yl)butanamide], the minimum inhibitory concentration (MIC) in test [1] was determined as 2 µg/mL (≈ 4.25 µM); in test [2] it was 4 µg/mL (≈ 8.5 µM); in test [3], 2 µg/mL (≈ 4.25 µM); in test [4], 8 µg/mL (≈ 17 µM).

Turning to `CSc1ccc(-c2ccc3c(ccn3CCC(C)(C(=O)NO)S(C)(=O)=O)c2)c(F)c1` (racemic) [RE10, (RS)-4-(5-(2-fluoro-4-(methylthio)phenyl)-1H-indol-1-yl)-N-hydroxy-2-methyl-2-(methylsulfonyl)butanamide], the MIC in test [1] was found to be 4 µg/mL (≈ 8.88 µM); in test [2] it was 2 µg/mL (≈ 4.44 µM); in test [3], 0.5 µg/mL (≈ 1.11 µM); in test [4], 8 µg/mL (≈ 17.8 µM).

In the case of `COc1ccc(-c2cc3ccn(CCC(C)(C(=O)NO)S(C)(=O)=O)c3cc2F)c(F)c1` (racemic) [RE11, (RS)-4-(6-fluoro-5-(2-fluoro-4-methoxyphenyl)-1H-indol-1-yl)-N-hydroxy-2-methyl-2-(methylsulfonyl)butanamide], the minimum inhibitory concentration (MIC) was 4 µg/mL (≈ 8.84 µM) in test [1], 1 µg/mL (≈ 2.21 µM) in test [2], 2 µg/mL (≈ 4.42 µM) in test [3] and 8 µg/mL (≈ 17.7 µM) in test [4].

For `COc1ccc(-c2ccc3c(ccn3CCC(C)(C(=O)NO)S(C)(=O)=O)c2F)c(F)c1` (racemic) [RE12, (RS)-4-(4-fluoro-5-(2-fluoro-4-methoxyphenyl)-1H-indol-1-yl)-N-hydroxy-2-methyl-2-(methylsulfonyl)butanamide], the minimum inhibitory concentration (MIC) in test [1] was found to be 2 µg/mL (≈ 4.42 µM); in test [2] it was 2 µg/mL (≈ 4.42 µM); in test [3], 4 µg/mL (≈ 8.84 µM); in test [4] it was 2 µg/mL (≈ 4.42 µM).

Consider `CC(CCn1ccc2c(F)c(C#Cc3ccc(C4(O)COC4)cc3)ccc21)(C(=O)NO)S(C)(=O)=O` (racemic) [RE13, (RS)-4-(4-fluoro-5-((4-(3-hydroxyoxetan-3-yl)phenyl)ethynyl)-1H-indol-1-yl)-N-hydroxy-2-methyl-2-(methylsulfonyl)butanamide], for which the MIC in test [1] worked out at 4 µg/mL (≈ 7.99 µM); in test [2], 0.25 µg/mL (≈ 0.499 µM); in test [3], 0.5 µg/mL (≈ 0.999 µM); in test [4], 2 µg/mL (≈ 4 µM).

Consider `C[C@@](CCn1ccc2cc(C#CC#C[C@@H]3C[C@H]3CO)c(F)cc21)(C(=O)NO)S(C)(=O)=O` (relative stereo) [Example 41, (R)-4-(6-fluoro-5-(((1R*,2R*)-2-(hydroxymethyl)cyclopropyl)buta-1,3-diyn-1-yl)-1H-indol-1-yl)-N-hydroxy-2-methyl-2-(methylsulfonyl)butanamide], for which the MIC in test [1] stood at 16 µg/mL (≈ 35.8 µM); in test [2], 0.125 µg/mL (≈ 0.28 µM); in test [3], 0.125 µg/mL (≈ 0.28 µM); in test [4], 1 µg/mL (≈ 2.24 µM).

Consider `COc1ccc(-c2ccc3c(ccn3CC[C@](C)(C(=O)NO)S(C)(=O)=O)c2)c(F)c1` (single isomer, unassigned) [Example 2], for which the MIC in test [1] came out at 8 µg/mL (≈ 18.4 µM); in test [2], 0.125 µg/mL (≈ 0.288 µM); in test [3], 2 µg/mL (≈ 4.6 µM); in test [4] it was 2 µg/mL (≈ 4.6 µM).

Turning to `C[C@@](CCn1ccc2cc(C#Cc3ccc(C4(O)COC4)cc3)c(F)cc21)(C(=O)NO)S(C)(=O)=O` (single isomer, unassigned) [Example 15], the minimal inhibitory concentration (MIC) in test [1] worked out at 0.25 µg/mL (≈ 0.499 µM); in test [2], 0.5 µg/mL (≈ 0.999 µM); in test [3] it was 0.5 µg/mL (≈ 0.999 µM); in test [4] it was 1 µg/mL (≈ 2 µM).

For the molecule `CSc1ccc(-c2ccc3c(cnn3CC[C@](C)(C(=O)NO)S(C)(=O)=O)c2)c(F)c1` [Example 1, (R)-4-(5-(2-fluoro-4-(methylthio)phenyl)-1H-indazol-1-yl)-N-hydroxy-2-methyl-2-(methylsulfonyl)butanamide], the minimum inhibitory concentration (MIC) in test [1] was 16 µg/mL (≈ 35.4 µM); in test [2], no more than 0.063 µg/mL; in test [3] it was 0.25 µg/mL (≈ 0.554 µM); in test [4] it was 4 µg/mL (≈ 8.86 µM).

For `COc1ccc(-c2ccc3c(cnn3CC[C@](C)(C(=O)NO)S(C)(=O)=O)c2)c(F)c1` [Example 3, (R)-4-(5-(2-fluoro-4-methoxyphenyl)-1H-indazol-1-yl)-N-hydroxy-2-methyl-2-(methylsulfonyl)butanamide], the MIC turned out to be 1 µg/mL (≈ 2.3 µM) in test [1], 0.25 µg/mL (≈ 0.574 µM) in test [2], 1 µg/mL (≈ 2.3 µM) in test [3] and 1 µg/mL (≈ 2.3 µM) in test [4].

Regarding `C[C@@](CCn1ncc2cc(C#Cc3ccc(CO)cc3)ccc21)(C(=O)NO)S(C)(=O)=O` [Example 4, (R)—N-hydroxy-4-(5-((4-(hydroxymethyl)phenyl)ethynyl)-1H-indazol-1-yl)-2-methyl-2-(methylsulfonyl)butanamide], the minimal inhibitory concentration (MIC) in test [1] is 0.125 µg/mL (≈ 0.283 µM); in test [2], 0.125 µg/mL (≈ 0.283 µM); in test [3] it was no more than 0.063 µg/mL; in test [4], 2 µg/mL (≈ 4.53 µM).

For `C[C@@](CCn1ncc2cc(C#CC#CC3(O)COC3)ccc21)(C(=O)NO)S(C)(=O)=O` [Example 5, (R)—N-hydroxy-4-(5-((3-hydroxyoxetan-3-yl)buta-1,3-diyn-1-yl)-1H-indazol-1-yl)-2-methyl-2-(methylsulfonyl)butanamide], the minimal inhibitory concentration (MIC) in test [1] was greater than 32 µg/mL; in test [2] it was 1 µg/mL (≈ 2.32 µM); in test [3], 1 µg/mL (≈ 2.32 µM); in test [4] it was 2 µg/mL (≈ 4.64 µM).

In the case of `C[C@@](CCn1ncc2cc(-c3ccc(-n4nccn4)cc3)ccc21)(C(=O)NO)S(C)(=O)=O` [Example 6, (R)-4-(5-(4-(2H-1,2,3-triazol-2-yl)phenyl)-1H-indazol-1-yl)-N-hydroxy-2-methyl-2-(methylsulfonyl)butanamide], the MIC in test [1] was 0.125 µg/mL (≈ 0.275 µM); in test [2], no more than 0.063 µg/mL; in test [3] it was 0.125 µg/mL (≈ 0.275 µM); in test [4], 2 µg/mL (≈ 4.4 µM).

Consider `CC(C)(O)C#CC#Cc1ccc2c(cnn2CC[C@](C)(C(=O)NO)S(C)(=O)=O)c1` [Example 7, (R)—N-hydroxy-4-(5-(5-hydroxy-5-methylhexa-1,3-diyn-1-yl)-1H-indazol-1-yl)-2-methyl-2-(methylsulfonyl)butanamide], for which the MIC in test [1] came to 32 µg/mL (≈ 76.6 µM); in test [2] it was 0.5 µg/mL (≈ 1.2 µM); in test [3] it was 1 µg/mL (≈ 2.4 µM); in test [4], 2 µg/mL (≈ 4.79 µM).
